Assay results published in PubChem BioAssay AID2060897 (Molecular Pharmacology Branch, DTP, NCI, 2025).

Test system: 966289-007-R4-J1-PDC complex spheroid viability
Experiment: Anticancer human tumor 966289-007-R4-J1-PDC patient-derived pancreatic adenocarcinoma cell line growth inhibition [RAS]
Settings: for IC50: curve of first compound; for viability, T/C: stronger effect = lower value
Procedure, shortened: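 Agents were tested in combination matrices in half-log decrements from a top concentration at or near clinical Cmax (10 microM if undetermined). Targets were multi-cell spheroids of tumour lines plus HUVEC and MSC stromal cells.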

[1] = second compound 0.00316 µM, first compound 0.0316 µM
[2] = second compound 0.00316 µM, first compound 0.1 µM
[3] = second compound 0.00316 µM, first compound 0.316 µM
[4] = second compound 0.00316 µM, first compound 1 µM
[5] = second compound 0.00316 µM, first compound 3.16 µM
[6] = second compound 0.00316 µM, first compound 10 µM
[7] = second compound 0.01 µM, first compound 0.0316 µM
[8] = second compound 0.01 µM, first compound 0.1 µM
[9] = second compound 0.01 µM, first compound 0.316 µM
[10] = second compound 0.01 µM, first compound 1 µM
[11] = second compound 0.01 µM, first compound 3.16 µM
[12] = second compound 0.01 µM, first compound 10 µM
[13] = second compound 0.0316 µM, first compound 0.0316 µM
[14] = second compound 0.0316 µM, first compound 0.1 µM
[15] = second compound 0.0316 µM, first compound 0.316 µM
[16] = second compound 0.0316 µM, first compound 1 µM
[17] = second compound 0.0316 µM, first compound 3.16 µM
[18] = second compound 0.0316 µM, first compound 10 µM
[19] = second compound 0.1 µM, first compound 0.0316 µM
[20] = second compound 0.1 µM, first compound 0.1 µM
[21] = second compound 0.1 µM, first compound 0.316 µM
[22] = second compound 0.1 µM, first compound 1 µM
[23] = second compound 0.1 µM, first compound 3.16 µM
[24] = second compound 0.1 µM, first compound 10 µM
[25] = second compound 0.316 µM, first compound 0.0316 µM
[26] = second compound 0.316 µM, first compound 0.1 µM
[27] = second compound 0.316 µM, first compound 0.316 µM
[28] = second compound 0.316 µM, first compound 1 µM
[29] = second compound 0.316 µM, first compound 3.16 µM
[30] = second compound 0.316 µM, first compound 10 µM
[31] = second compound 1 µM, first compound 0.0316 µM
[32] = second compound 1 µM, first compound 0.1 µM
[33] = second compound 1 µM, first compound 0.316 µM
[34] = second compound 1 µM, first compound 1 µM
[35] = second compound 1 µM, first compound 3.16 µM
[36] = second compound 1 µM, first compound 10 µM
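Also: spheroids exposed to agents for one week before readout.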
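For viability, T/C in this document: percent viability relative to DMSO vehicle control wells as 100%.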

`Cc1nc(N2CCC3(CC2)COC(C)C3N)c(CO)nc1Sc1ccnc(N)c1Cl` (stereo unspecified) + C=CC(=O)N1CCN(c2nc(OCC3CCCN3C)nc3c(F)c(-c4nc(N)cc(C)c4C(F)(F)F)c(Cl)cc23)C(C)C1 showed an IC50 (second compound 0.00316 µM) of over 10 µM, an IC50 (second compound 0.01 µM) of over 10 µM and an IC50 (second compound 0.0316 µM) of over 10 µM. For the same molecule, the IC50 (second compound 0.1 µM) was over 10 µM, the IC50 (second compound 0.316 µM) was over 10 µM and the IC50 (second compound 1 µM) was over 10 µM. It also gave a viability, T/C [1] of 100%, a viability, T/C [2] of 90.2% and a viability, T/C [3] of 121%. The viability, T/C [4] was 105%, the viability, T/C [5] was 106% and the viability, T/C [6] was 80%. The viability, T/C [7] was 109%, the viability, T/C [8] was 89.6% and the viability, T/C [9] was 109%. It also gave a viability, T/C [10] of 94.6%, a viability, T/C [11] of 100% and a viability, T/C [12] of 98.6%. For the same molecule, the viability, T/C [13] was 106%, the viability, T/C [14] was 97.9% and the viability, T/C [15] was 110%. The viability, T/C [16] was 105%, the viability, T/C [17] was 108% and the viability, T/C [18] was 84.7%. The viability, T/C [19] was 91.1%, the viability, T/C [20] was 107% and the viability, T/C [21] was 107%. It also gave a viability, T/C [22] of 99.9%, a viability, T/C [23] of 101% and a viability, T/C [24] of 81.6%. The viability, T/C [25] was 111%, the viability, T/C [26] was 102% and the viability, T/C [27] was 123%. It also gave a viability, T/C [28] of 114%, a viability, T/C [29] of 97.8% and a viability, T/C [30] of 101%. It also gave a viability, T/C [31] of 91.3%, a viability, T/C [32] of 98.1% and a viability, T/C [33] of 112%. For the same molecule, the viability, T/C [34] was 107%, the viability, T/C [35] was 104% and the viability, T/C [36] was 97.1%.
Work on `CC(C)NCC(C(=O)N1CCN(c2ncnc3c2C(C)CC3O)CC1)c1ccc(Cl)cc1` (stereo unspecified) + C=CC(=O)N1CCN(c2nc(OCC3CCCN3C)nc3c(F)c(-c4nc(N)cc(C)c4C(F)(F)F)c(Cl)cc23)C(C)C1 yielded an IC50 (second compound 0.00316 µM) of 5.59 µM, an IC50 (second compound 0.01 µM) of 5.17 µM and an IC50 (second compound 0.0316 µM) of 5.85 µM. It also gave an IC50 (second compound 0.1 µM) of 5.45 µM, an IC50 (second compound 0.316 µM) of 5.98 µM and an IC50 (second compound 1 µM) of 5.35 µM. The viability, T/C [1] was 99.8%, the viability, T/C [2] was 85.1% and the viability, T/C [3] was 112%. For the same molecule, the viability, T/C [4] was 101%, the viability, T/C [5] was 70.1% and the viability, T/C [6] was 29.5%. The viability, T/C [7] was 105%, the viability, T/C [8] was 96.7% and the viability, T/C [9] was 118%. For the same molecule, the viability, T/C [10] was 99.5%, the viability, T/C [11] was 61.9% and the viability, T/C [12] was 34.3%. For the same molecule, the viability, T/C [13] was 99.7%, the viability, T/C [14] was 110% and the viability, T/C [15] was 126%. The viability, T/C [16] was 104%, the viability, T/C [17] was 67.2% and the viability, T/C [18] was 35.1%. It also gave a viability, T/C [19] of 116%, a viability, T/C [20] of 104% and a viability, T/C [21] of 132%. The viability, T/C [22] was 110%, the viability, T/C [23] was 63.2% and the viability, T/C [24] was 35.4%. The viability, T/C [25] was 106%, the viability, T/C [26] was 97.1% and the viability, T/C [27] was 127%. For the same molecule, the viability, T/C [28] was 107%, the viability, T/C [29] was 67.5% and the viability, T/C [30] was 35.9%. For the same molecule, the viability, T/C [31] was 101%, the viability, T/C [32] was 95.8% and the viability, T/C [33] was 115%. It also gave a viability, T/C [34] of 90.1%, a viability, T/C [35] of 62.9% and a viability, T/C [36] of 35.5%.
Molecule `C=CC(=O)Nc1cc(Nc2nccc(-c3cn(C)c4ccccc34)n2)c(OC)cc1N(C)CCN(C)C` + CCn1c(-c2cccnc2C(C)OC)c2c3cc(ccc31)N1CCOC(CC(NC(=O)C(C(C)C)N(C)C(=O)C3(F)CCN(C(=O)C#CC(C)(C)N(C)C)CC3)C(=O)N3CCCC(N3)C(=O)OCC(C)(C)C2)C1 has an IC50 (second compound 0.000949 µM) of over 1 µM, an IC50 (second compound 0.003 µM) of over 1 µM and an IC50 (second compound 0.00949 µM) of over 1 µM. The IC50 (second compound 0.03 µM) was over 1 µM, the IC50 (second compound 0.0949 µM) was over 1 µM and the IC50 (second compound 0.3 µM) was over 1 µM. For the same molecule, the viability, T/C (second compound 0.000949 µM, first compound 0.00316 µM) was 101%, the viability, T/C (second compound 0.000949 µM, first compound 0.01 µM) was 101% and the viability, T/C (second compound 0.000949 µM, first compound 0.0316 µM) was 99.9%. It also gave a viability, T/C (second compound 0.000949 µM, first compound 0.1 µM) of 56.5%, a viability, T/C (second compound 0.000949 µM, first compound 0.316 µM) of 77.5% and a viability, T/C (second compound 0.000949 µM, first compound 1 µM) of 67.8%. It also gave a viability, T/C (second compound 0.003 µM, first compound 0.00316 µM) of 106%, a viability, T/C (second compound 0.003 µM, first compound 0.01 µM) of 84.3% and a viability, T/C (second compound 0.003 µM, first compound 0.0316 µM) of 82.1%. For the same molecule, the viability, T/C (second compound 0.003 µM, first compound 0.1 µM) was 56.4%, the viability, T/C (second compound 0.003 µM, first compound 0.316 µM) was 55.1% and the viability, T/C (second compound 0.003 µM, first compound 1 µM) was 61.9%. For the same molecule, the viability, T/C (second compound 0.00949 µM, first compound 0.00316 µM) was 87%, the viability, T/C (second compound 0.00949 µM, first compound 0.01 µM) was 97% and the viability, T/C (second compound 0.00949 µM, first compound 0.0316 µM) was 90.8%. It also gave a viability, T/C (second compound 0.00949 µM, first compound 0.1 µM) of 66.4%, a viability, T/C (second compound 0.00949 µM, first compound 0.316 µM) of 78.5% and a viability, T/C (second compound 0.00949 µM, first compound 1 µM) of 78.4%. It also gave a viability, T/C (second compound 0.03 µM, first compound 0.00316 µM) of 65%, a viability, T/C (second compound 0.03 µM, first compound 0.01 µM) of 90% and a viability, T/C (second compound 0.03 µM, first compound 0.0316 µM) of 99.3%. For the same molecule, the viability, T/C (second compound 0.03 µM, first compound 0.1 µM) was 69.8%, the viability, T/C (second compound 0.03 µM, first compound 0.316 µM) was 92.7% and the viability, T/C (second compound 0.03 µM, first compound 1 µM) was 77.5%. The viability, T/C (second compound 0.0949 µM, first compound 0.00316 µM) was 76.9%, the viability, T/C (second compound 0.0949 µM, first compound 0.01 µM) was 93.5% and the viability, T/C (second compound 0.0949 µM, first compound 0.0316 µM) was 117%. The viability, T/C (second compound 0.0949 µM, first compound 0.1 µM) was 67.8%, the viability, T/C (second compound 0.0949 µM, first compound 0.316 µM) was 113% and the viability, T/C (second compound 0.0949 µM, first compound 1 µM) was 67.7%. It also gave a viability, T/C (second compound 0.3 µM, first compound 0.00316 µM) of 81.5%, a viability, T/C (second compound 0.3 µM, first compound 0.01 µM) of 107% and a viability, T/C (second compound 0.3 µM, first compound 0.0316 µM) of 111%. It also gave a viability, T/C (second compound 0.3 µM, first compound 0.1 µM) of 101%, a viability, T/C (second compound 0.3 µM, first compound 0.316 µM) of 108% and a viability, T/C (second compound 0.3 µM, first compound 1 µM) of 90.8%.
